Source: US9586985B2, “Organic compounds as proantigens for natural killer T cells” (Callaghan Innovation Research Limited, priority 2012, dated 2017)
“Also recorded” adds a separate entry of the source.

Experiments:
[1] = test system: cytokines IL-12p70, IL-4 and IFN-g; assay: Cytokine release into serum after injection (cytokine bead array); format: in vivo, C57BL/6 mice; conditions: for cytokine profile in vivo compared to α-GalCer: 200 ng i.v. or molar equivalent
Method: (§1) Groups of C57BL/6 mice (n=3 per group) are injected intravenously with 200 ng of the indicated compounds, and then the serum is collected at the indicated times for analysis of cytokine levels by cytokine bead array technology.
as §1, with “ng of α-GalCer or an equivalent molar amount” for “ng”, “technology. (Compound CN158A1b=CN158 formulated in accordance with Example 15; Compound CN158A=CN158 in water.)” for “technology.”
Blood is collected from the lateral tail vein at different time intervals after glycolipid administration. Serum is collected after blood has clotted, and levels of cytokines IL-12p70, IL-4 and IFN-g are assessed by cytokine bead array technology (Bioplex, Biorad), according to the manufacturer's instructions.

[2] = HPLC-ESI-MSMS quantification of α-GalCer in test samples; format: physicochemical
Method: Quantification of the amount of α-GalCer in various test samples of compounds of the invention is made by HPLC-ESI-MSMS analysis using a Waters 2795 HPLC and a Waters Q-TOF Premier™ Tandem Mass Spectrometer. The chromatography used a Phenomenex Kinetex C18 […] 3.0×50 mm column eluting with isocratic methanol containing 10 mM ammonium formate+0.5% formic acid at a flow rate of 0.2 mL/min. α-GalCer is monitored by selective reactant monitoring of 858.7 to 696.7 Da. The estimate of amount of α-GalCer is made by comparison of ion count integrals to a standard curve run on the same day or by comparison to test samples spiked with a known amount of α-GalCer.
The level of α-GalCer is determined on freshly reconstituted formulated samples unless otherwise stated. The estimated maximum level of α-GalCer for key compounds is given below.

Water solubility = format: physicochemical
[3] = test system: SIINFEKL-specific T cells; assay: Peptide-specific T cell proliferation in vivo (adjuvant with OVA); set-up: species or system C57BL/6 mice; conditions: co-administered i.v. with OVA, molar dose equivalent to α-GalCer, blood after seven days
Method: The compounds are injected to give the equivalent molar dose as compared to α-GalCer. To increase sensitivity of the assay, all mice are initially donated a cohort of 10,000 SIINFEKL-specific T cells from a transgenic mouse encoding a T cell receptor for this antigen (OT-1 mice), which is undertaken by intravenous injection of the cells one day before the vaccines are administered. […] It is therefore possible to enumerate SIINFEKL-specific T cells in blood by flow cytometry using antibodies for CD45.1 together with antibodies for the transgenic T cell receptor (Vα2). […] Control animals are injected with the diluent phosphate-buffered saline (PBS). Each dot represents a different animal; mean per treatment group±SEM are presented. ***p<0.001, ** p<0.01, * p<0.05.
Pooled lymph node cell suspensions are prepared from animals of a cross between OT-I mice, which express a transgenic T cell receptor (TCR) specific for the ovalbumin epitope SIINFEKL in the context of H-2K^b molecules, and B6.SJL-Ptprc^a Pepc^b/BoyJ mice, which are congenic with C57BL/6 mice for the CD45.1^+ marker. The samples are enriched for CD8^+ cells using antibody coated magnetic beads (Miltenyi), and then transferred into C57BL/6 mice (1×10^4 per mouse). Groups of recipient animals (n=5) are immunized with compounds of the invention one day later. Doses are chosen to provide equivalent molar values of SIINFEKL peptide. […]

B16.OVA melanoma cells = assay: Anti-tumour activity against subcutaneous B16.OVA tumours, given with OVA protein; format: in vivo, C57BL/6 mice; conditions: i.v. with 200 μg OVA protein seven days after tumour challenge
Method: Progression of subcutaneous B16.OVA tumours is monitored in animals that are treated seven days after tumour challenge with intravenous OVA protein together with the indicated compounds, or treated with PBS. The mean tumour sizes per group (n=5)±SEM are shown.
Progression of subcutaneous B16.OVA tumours is monitored in animals that are treated seven days after tumour challenge with intravenous OVA protein together with the indicated compounds, or treated with PBS. The mean tumour sizes per group (n=5)±SEM are shown. […] (Compound CN158A=CN158 in water.)
Groups of C57BL/6 mice (n=5) receive a subcutaneous injection into the flank of 1×10^5 B16.OVA melanoma cells, which express a cDNA encoding the chicken ovalbumin (OVA) sequence. The different groups are treated 7 days later, when tumours are fully engrafted, by intravenous injection of one of the following; 200 μg OVA protein together with 200 ng α-GalCer, 200 μg OVA protein together with 200 ng of a compound of the invention, or PBS. Mice are monitored for tumour growth every 3-4 days, and tumour size for each group is calculated as the mean of the products of bisecting diameters (±SEM). Measurements are terminated for each group when the first animal develops a tumour exceeding 200 mm^2.

[4] = test system: NKT cells / CD11c+ dendritic cells; assay: CD86 expression on splenic dendritic cells after injection (DC activation as measure of NKT cell activation); format: in vivo, C57BL/6 mice; conditions: 200 ng i.v. (FIG. 7: molar equivalent of 200 ng α-GalCer), spleens removed 20 h later, flow cytometry
Method: (§2) Groups of C57BL/6 mice (n=3) are injected intravenously with 200 ng of the indicated compounds and then the spleens are removed 20 h later for the analysis of CD86 expression on CD11c+ dendritic cells by antibody labelling and flow cytometry. Mean fluorescence index±SEM are presented.
as §2, with “200 ng of α-GalCer or an equivalent molar amount of the” for “200 ng of the”, “are presented. (Compound CN158A1b=CN158 formulated in accordance with Example 15. Compound CN158A=CN158 in water.)” for “are presented.”
Each compound of the invention is supplied as formulated product (see example 12), and diluted in phosphate-buffered saline (PBS) for injection (200 ng/mouse) by intravenous injection into the lateral tail vein. In humans the expected therapeutic dose lies in the 50-4800 (μg/m^2) range (Giaccone, Punt et al. 2002). Note, 200 ng in a mouse is a human equivalent dose of 30 μg/m^2.
All antibody labeling is performed on ice in FACS buffer (PBS supplemented with 1% FCS, 0.05% sodium azide, and 2 mM EDTA). Non-specific FcR-mediated antibody staining is blocked by incubation for 10 min with anti-CD16/32 Ab (24G2, prepared in-house from hybridoma supernatant). […]

[5] = literature statement; cited from earlier work
[6] = freshly reconstituted formulated sample, estimated maximum level
[7] = non-formulated / unformulated sample (CN158*: aqueous solution)

| Molecule | cytokine profile in vivo compared to α-GalCer ([1]; FIGS. 3 and 8) | Max α-GalCer (ppm) [2, 6] | Max α-GalCer/injection [2, 6] | water solubility (Water solubility) | Max α-GalCer (ppm) [2, 7] | Max α-GalCer/injection [2, 7] | SIINFEKL-specific T cell response in blood (adjuvant activity) [3] | anti-tumour activity: growth of established B16.OVA tumours (B16.OVA melanoma cells) | other results |
| --- | --- | --- | --- | --- | --- | --- | --- | --- | --- |
| (2S,3S,4R)-1-O-α-D-Galactopyranosyl-4-hexacosanoyl-2-((4-(2-methoxy(poly(2-ethoxy))imino)pentanoyloxy)methoxycarbonylamino) octadecane-1,3,4-triol [CN147] | different cytokine profiles | 615 ppm | 0.123 ng | ~0.5 mg/mL | – | – | – | – | course of IL-12p70 level in serum ([1]; 200 ng i.v., FIG. 3): still increasing through 6 to 12 h; ratio of IFN-γ to IL-4 in serum compared to α-GalCer ([1]; 200 ng i.v., FIG. 3): higher ratio of IFN-γ to IL-4 than that of α-GalCer |
| CCCCCCCCCCCCCCCCCCCCCCCCCC(=O)O[C@H](CCCCCCCCCCCCCC)[C@@H](O)[C@H](CO[C@H]1O[C@H](CO)[C@H](O)[C@H](O)[C@H]1O)NC(=O)OCOP(=O)(O)O [CN131, (2S,3S,4R)-1-O-α-D-Galactopyranosyl-4-O-hexacosanoyl-2-phosphoryloxymethoxycarbonylamino octadecane-1,3,4-triol] | – | – | – | – | 6,000 (analysis on non- ppm | 1.2 ng | – | – | – |
| (2S,3S,4R)-1-O-α-D-Galactopyranosyl-4-hexacosanoyl-2-((4-(ω-methoxy(poly(ethyleneoxy))imino)pentanoyloxy)methyleneoxycarbonylamino) octadecane-1,3,4-triol [CN158] | different cytokine profiles | 180 ppm | 0.25 ng | ~38 mg/mL | 170 ppm | 0.24 ng | induces a similar T cell expansion | provides therapeutic anti-tumour activity | overall levels of systemic cytokine production ([1]; 200 ng α-GalCer or equivalent i.v., FIGS. 3 and 8): no systemic cytokines are detected; also recorded: No detectable cytokines are observed |
| CCCCCCCCCCCCCCCCCCCCCCCCCC(=O)O[C@H](CCCCCCCCCCCCCC)[C@@H](O)[C@H](CO[C@H]1O[C@H](CO)[C@H](O)[C@H](O)[C@H]1O)NC(=O)OCOC(C)=O [CN136, (2S,3S,4R)-2-Acetoxymethoxycarbonylamino-1-O-α-D-galactopyranosyl-4-O-hexacosanoyl octadecane-1,3,4-triol] | – | 1,000 ppm | 0.2 ng | – | – | – | – | – | – |
| CCCCCCCCCCCCCCCCCCCCCCCCCC(=O)O[C@H](CCCCCCCCCCCCCC)[C@@H](O)[C@@H](N)CO[C@H]1O[C@H](CO)[C@H](O)[C@H](O)[C@H]1O [CN089, (2S,3S,4R)-2-Amino-1-O-α-D-galactopyranosyl-4-O-hexacosanoyl octadecane-1,3,4-triol] | – | – | – | – | – | – | – | – | conversion of CN089 to α-GalCer after formulation ([2]; within 1 hour of formulation, LCMSMS): approximately 50%; DC activation: CD86 expression on splenic CD11c+ dendritic cells [4]: potently activates DCs |
| CCCCCCCCCCCCCCCCCCCCCCCCCC(=O)N[C@@H](CO[C@H]1O[C@H](CO)[C@H](O)[C@H](O)[C@H]1O)[C@H](O)[C@H](O)CCCCCCCCCCCCCC [α-GalCer, α-Galactosylceramide, reference compound] | – | – | – | – | – | – | induces a population of SIINFEKL-specific T cells | provides therapeutic anti-tumour activity | time of peak IFN-γ level in serum ([1]; after injection, mice): 12 h; time of peak IL-4 level in serum ([1]; after injection, mice): 2 to 3 h; time of peak IL-12p70 level in serum ([1]; after injection, mice): 6 h; water solubility (in words) [5]: low water solubility; also recorded: poor solubility |
